Measurements published in ChEMBL document CHEMBL4476878, “Galactokinase inhibitors” (2013).
Calls of active or inactive are those of the source.

What was measured:
[1] = biological target: Galactokinase (Homo sapiens) (UniProt P51570); assay: Inhibition of His6-tagged recombinant human GALK expressed in Escherichia coli HMS174 (DE3) incubated for 60 mins using galactose and ATP by Kinase-Glo reagent based assay
[2] = system: Geobacillus stearothermophilus; assay: Inhibition of Bacillus stearothermophilus glucokinase
[3] = system: Saccharomyces cerevisiae; assay: Inhibition of Saccharomyces cerevisiae hexokinase
[4] = biological target: Galactokinase (Homo sapiens) (UniProt P51570); assay: Inhibition of His6-tagged recombinant human GALK expressed in Escherichia coli HMS174 (DE3) by pyruvate kinase/lactate dehydrogenase-coupled assay
[5] = biological target: T1, 4-diphosphocytidyl-2-C-methyl-D-erythritol kinase (Escherichia coli (strain K12)) (UniProt P62615); assay: Inhibition of purified Escherichia coli CDP-ME kinase IspE expressed in Escherichia coli HMS174 at 10 to 50 uM by luciferase-luciferin based luminescence-based assay
T1 sequence (whole entry): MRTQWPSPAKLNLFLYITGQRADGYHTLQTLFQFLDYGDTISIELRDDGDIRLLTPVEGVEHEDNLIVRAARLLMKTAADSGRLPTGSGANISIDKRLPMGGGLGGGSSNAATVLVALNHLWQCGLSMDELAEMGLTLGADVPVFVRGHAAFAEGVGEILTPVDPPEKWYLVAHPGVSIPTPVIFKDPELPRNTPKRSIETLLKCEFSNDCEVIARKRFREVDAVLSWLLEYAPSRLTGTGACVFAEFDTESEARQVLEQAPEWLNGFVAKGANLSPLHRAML

[6] = biological target: Galactokinase (Homo sapiens) (UniProt P51570); assay: Inhibition of His6-tagged recombinant human GALK expressed in Escherichia coli HMS174 (DE3) at 5 to 15 uM incubated for 60 mins using galactose and ATP by Kinase-Glo reagent based assay

Measured: inhibition

Sequence of Galactokinase (Homo sapiens) (P51570 whole entry): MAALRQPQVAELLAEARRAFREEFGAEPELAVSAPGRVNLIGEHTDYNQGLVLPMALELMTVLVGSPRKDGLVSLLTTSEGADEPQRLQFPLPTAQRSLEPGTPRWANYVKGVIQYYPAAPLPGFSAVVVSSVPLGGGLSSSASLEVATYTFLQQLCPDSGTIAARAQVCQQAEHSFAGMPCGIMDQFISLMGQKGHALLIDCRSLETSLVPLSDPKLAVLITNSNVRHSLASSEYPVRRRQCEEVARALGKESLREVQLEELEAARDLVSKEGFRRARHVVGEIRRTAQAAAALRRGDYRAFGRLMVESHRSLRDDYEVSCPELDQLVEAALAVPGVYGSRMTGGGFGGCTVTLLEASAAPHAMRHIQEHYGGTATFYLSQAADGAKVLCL

O=C1O[C@H](c2ccccc2)[C@H](c2ccccc2)N2[C@H]1[C@@H](C(=O)O)[C@]1(C(=O)Nc3ccc(C#CC4(O)CCCCCC4)cc31)[C@H]2c1ccc(OCCO)cc1
active: [1] | [2] | [3]

COC1=C(N)C(=O)c2nc(-c3nc(C(=O)O)c(C)c(-c4ccc(OC)c(OC)c4O)c3N)ccc2C1=O
active: [1] | [4] | [2] | [3]

CC(C)(C)C(=O)Nc1ccc2c(c1)C(=O)C(=O)c1ccccc1-2
active: [1] | [4] | [2] | [3]

CC1(C)CCC2=C(O1)c1ccccc1C(=O)C2=O
active: [1] | [2] | [3]

N#CC1=C(SCc2ccccc2)SC(c2ccc(C(=O)O)cc2)NC1=O (stereo not drawn)
active: [1] | [2] | [3]

O=C1NC(=S)N(c2cccc3ccccc23)C(=O)/C1=C/c1c[nH]c2ccccc12
active: [1] | [2] | [3]

Cc1cccc(OCCOc2ccc(Br)cc2/C=C2\SC(=S)NC2=O)c1
active: [1] | [2] | [3]

O=C1OC2(c3ccccc31)c1cc(I)c(O)c(I)c1Oc1c2cc(I)c(O)c1I
active: [1] | [2] | [3]

c1ccc(-c2cnc3nonc3n2)cc1
active: [1] | [2] | [3]

O=C(NC1(O)C(=O)c2ccccc2C1=O)c1cnn(-c2ccccc2)c1C(F)(F)F
active: [1] | [2] | [3]

Oc1c(Cl)cc(Cl)c(Cl)c1Cc1c(O)c(Cl)cc(Cl)c1Cl
active: [1] | [4] | [2] | [3]

CC(C)(C)c1cc(/C=C2/SC(=S)NC2=O)cc(C(C)(C)C)c1O
active: [1] | [2] | [3]

COC(=O)CSC1=C(C#N)C(=O)NC(c2ccccc2O)S1 (stereo not drawn)
active: [1] | [2] | [3]

Cc1c(O)c(C(=O)CC(C)C)c2oc3c(C(=O)CC(C)C)c(O)c(C)c(O)c3c2c1O
active: [1] | [2] | [3]

COc1cc(/C=C2/SC(=S)NC2=O)ccc1OC(=O)c1cccc(C)c1
active: [1] | [2] | [3]

N#Cc1ccc(CSc2nc(-c3cccs3)c3c(c2C(=O)O)CCCC3)cc1
active: [1] | [2] | [3]

CCSC1=C(C#N)C(=O)NC(/C=C/c2ccccc2)S1 (stereo not drawn)
active: [1] | [2] | [3]

CC(C)OC1(O)C(=O)c2ccccc2C(=O)C1(O)OC(C)C (stereo not drawn)
active: [1] | [2] | [3]

CC1=NOC(=O)/C1=C\c1ccc(-c2ccccc2)o1
active: [1] | [2] | [3]

O=C1OC(c2ccccc2)OC(=O)C1=C/C=C/c1ccccc1 (stereo not drawn)
active: [1] | [2] | [3]

CC1=NN(c2cccc(C(=O)O)c2)C(=O)/C1=C/c1ccc(-c2cccc(Cl)c2C)o1
active: [1] | [2] | [3]

O=C1C=C2N(c3ccccc3)CCOC2(O)c2ccccc21 (stereo not drawn)
active: [1] | [2] | [3]

O=C1NC(=O)N(c2ccccc2)C(=O)/C1=C/c1c2ccccc2cc2ccccc12
active: [1] | [2] | [3]

N#CC1=C(SCc2ccccc2)SC(c2ccccc2O)NC1=O (stereo not drawn)
active: [1] | [2] | [3]

Cn1c(=S)[nH]c2sc3c(c2c1=O)CCC(C(C)(C)C)C3 (stereo not drawn)
active: [1] | [2] | [3]

Oc1c(Cl)cc(Cl)cc1Sc1cc(Cl)cc(Cl)c1O
active: [1] | [2] | [3]

O=C1Nc2ccc(I)cc2/C1=C/c1cc(Br)c(O)c(Br)c1
active: [1] | [2] | [3]

CCOc1cccc(NC(=O)C2CC(=O)N(/N=C(\C)c3ccc(Br)s3)C(=N)S2)c1 (stereo not drawn)
active: [1] | [2] | [3]

Cc1cc2c(C(C)C)c(O)c(O)c(C=O)c2c(O)c1-c1c(C)cc2c(C(C)C)c(O)c(O)c(C=O)c2c1O
active: [5]

O=C1OC2(CCCC2)OC(=O)C1=Cc1ccc(OCc2ccccc2)cc1
active: [1] | [2] | [3]

N#Cc1c(-c2ccc(Cl)cc2)nc(SCc2ccccc2)[nH]c1=S
active: [1] | [2] | [3]

Nc1ncnc2c1ncn2[C@@H]1O[C@H](COP(=O)(O)OP(=O)(O)OP(O)(O)=S)[C@@H](O)[C@H]1O
active: [6]

CC1(c2ccccc2)CC(C)(C)N2C(=O)/C(=C3/SC(=O)NC3=O)c3cccc1c32 (stereo not drawn)
active: [1] | [4] | [2] | [3]

Cc1c(N=c2c(=O)c3ccccc3c2=O)c(=O)n(-c2ccccc2)n1C
active: [1] | [2] | [3]

O=C1C(NS(=O)(=O)c2ccccc2)=C/C(=N\S(=O)(=O)c2ccc(F)cc2)c2ccccc21
active: [1] | [2] | [3]

Cc1ccc(CSc2nc(C(=O)O)ccc2C#N)cc1
active: [1] | [2] | [3]
